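Grown in 96-well plates, cells were treated for 48 hours with each compound at five concentrations. Insufficient inhibition: endpoint recorded as highest concentration tested. Here, GI50 denotes the concentration required for 50% inhibition of growth.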 Activity calls are given as the source filed them. Cut-off read from the data, not from the text of the source: active = GI50 up to about 1.1 µM and inactive = higher.
Tests used:
Experiment in all cases: NCI-60 cell line screen, 48 h
[1] = test system: 786-0
[2] = test system: ACHN
[3] = test system: DU-145
[4] = test system: HL-60
[5] = test system: HOP-62
[6] = test system: M14
[7] = test system: MDA-N
[8] = test system: NCI-H226
[9] = test system: OVCAR-3
[10] = test system: OVCAR-5
[11] = test system: OVCAR-8
[12] = test system: RPMI-8226
[13] = test system: SK-MEL-28
[14] = test system: SK-MEL-2
[15] = test system: SK-MEL-5
[16] = test system: SR
[17] = test system: TK-10
[18] = test system: U-251
[19] = test system: UO-31
[20] = test system: KM12

Structure (SMILES)	GI50 [1]	GI50 [2]	GI50 [3]	GI50 [4]	GI50 [5]	GI50 [6]	GI50 [7]	GI50 [8]	GI50 [9]	GI50 [10]	GI50 [11]	GI50 [12]	GI50 [13]	GI50 [14]	GI50 [15]	GI50 [16]	GI50 [17]	GI50 [18]	GI50 [19]	GI50 [20]
Cc1c(C)c(C)c(CC2(C)CSC2)c(CC2(C)CSC2)c1C	> 100 µM (inactive)	> 100 µM (inactive)	> 100 µM (inactive)	> 100 µM (inactive)	> 100 µM (inactive)	> 100 µM (inactive)	> 100 µM (inactive)	> 100 µM (inactive)	> 100 µM (inactive)	> 100 µM (inactive)	> 100 µM (inactive)	> 100 µM (inactive)	> 100 µM (inactive)	> 100 µM (inactive)	> 100 µM (inactive)	> 100 µM (inactive)	> 100 µM (inactive)	> 100 µM (inactive)	> 100 µM (inactive)	–
NS(=O)(=O)c1ccc(N2C(=O)C(=O)N(c3ccccc3)C2=S)cc1	> 100 µM (inactive)	> 100 µM (inactive)	> 100 µM (inactive)	> 100 µM (inactive)	> 100 µM (inactive)	–	> 100 µM (inactive)	61.1 µM (inactive)	–	> 100 µM (inactive)	> 100 µM (inactive)	> 100 µM (inactive)	> 100 µM (inactive)	> 100 µM (inactive)	97.1 µM (inactive)	18.9 µM (inactive)	> 100 µM (inactive)	> 100 µM (inactive)	> 100 µM (inactive)	> 100 µM (inactive)
c1ccc(CN2CCN3CCN(CC2)CCN(Cc2ccccc2)CC3)cc1	4.57 µM (inactive)	20.7 µM (inactive)	12.4 µM (inactive)	2.55 µM (inactive)	14.2 µM (inactive)	5.51 µM (inactive)	3.3 µM (inactive)	4.94 µM (inactive)	7.91 µM (inactive)	9.48 µM (inactive)	9.73 µM (inactive)	2.14 µM (inactive)	4.67 µM (inactive)	2.82 µM (inactive)	1.98 µM (inactive)	4.08 µM (inactive)	11.4 µM (inactive)	4.29 µM (inactive)	31.7 µM (inactive)	3.33 µM (inactive)
COC(=O)c1ccc(CCC2=CC(=O)C=CC2=O)cc1	2.41 µM (inactive)	7.71 µM (inactive)	18.2 µM (inactive)	0.728 µM (active)	19.1 µM (inactive)	15.1 µM (inactive)	12.5 µM (inactive)	16.7 µM (inactive)	6.85 µM (inactive)	18.2 µM (inactive)	17.4 µM (inactive)	1.8 µM (inactive)	9.42 µM (inactive)	16.4 µM (inactive)	12.9 µM (inactive)	2.49 µM (inactive)	19 µM (inactive)	11.2 µM (inactive)	7.36 µM (inactive)	11.9 µM (inactive)
N#Cc1c(N2CCCC2)ncn(Cc2ccccc2)c1=S	36.2 µM (inactive)	> 92.7 µM (inactive)	86.3 µM (inactive)	> 100 µM (inactive)	40.3 µM (inactive)	> 100 µM (inactive)	> 100 µM (inactive)	> 96.2 µM (inactive)	60.5 µM (inactive)	> 100 µM (inactive)	57.1 µM (inactive)	> 100 µM (inactive)	> 100 µM (inactive)	> 100 µM (inactive)	> 100 µM (inactive)	> 100 µM (inactive)	> 100 µM (inactive)	38.9 µM (inactive)	> 100 µM (inactive)	> 100 µM (inactive)
O=C1NC(O)CCN1C1CC(O)C(CO)O1 (configuration not stated)	> 100 µM (inactive)	> 100 µM (inactive)	> 100 µM (inactive)	> 100 µM (inactive)	> 100 µM (inactive)	> 100 µM (inactive)	> 100 µM (inactive)	> 100 µM (inactive)	> 100 µM (inactive)	> 100 µM (inactive)	> 100 µM (inactive)	> 100 µM (inactive)	> 100 µM (inactive)	> 100 µM (inactive)	> 100 µM (inactive)	> 100 µM (inactive)	> 100 µM (inactive)	> 100 µM (inactive)	> 100 µM (inactive)	74.1 µM (inactive)
COc1cc(C23OCC(Cc4cc5c(cc42)OCO5)C3CO)cc(OC)c1OC (configuration not stated)	3.09 µM (inactive)	7.13 µM (inactive)	2.64 µM (inactive)	2.76 µM (inactive)	4.34 µM (inactive)	3.64 µM (inactive)	0.402 µM (active)	3.85 µM (inactive)	1.46 µM (inactive)	6.81 µM (inactive)	4.14 µM (inactive)	–	> 100 µM (inactive)	3.24 µM (inactive)	6.7 µM (inactive)	0.187 µM (active)	> 24.4 µM (inactive)	2.94 µM (inactive)	8.95 µM (inactive)	0.215 µM (active)
COc1ccc(CSCc2cc(OC)c(OC)c(OC)c2)cc1	> 100 µM (inactive)	> 100 µM (inactive)	> 100 µM (inactive)	5.92 µM (inactive)	> 100 µM (inactive)	> 54.5 µM (inactive)	7.26 µM (inactive)	> 100 µM (inactive)	> 100 µM (inactive)	> 100 µM (inactive)	> 31.6 µM (inactive)	> 55 µM (inactive)	> 100 µM (inactive)	> 100 µM (inactive)	21.2 µM (inactive)	> 100 µM (inactive)	> 100 µM (inactive)	> 100 µM (inactive)	> 100 µM (inactive)	27.1 µM (inactive)
COC(=O)c1ccccc1C1CN=NC12Cc1ccccc1C2=O (configuration not stated)	> 100 µM (inactive)	> 100 µM (inactive)	> 100 µM (inactive)	47.4 µM (inactive)	> 100 µM (inactive)	68.1 µM (inactive)	> 100 µM (inactive)	> 100 µM (inactive)	40.5 µM (inactive)	> 100 µM (inactive)	59.6 µM (inactive)	48 µM (inactive)	77.6 µM (inactive)	> 100 µM (inactive)	42.4 µM (inactive)	> 100 µM (inactive)	> 100 µM (inactive)	> 100 µM (inactive)	34.2 µM (inactive)	58.1 µM (inactive)
Cc1coc2c1CC1(C)C(CCC(O)C1C)C2 (configuration not stated)	> 100 µM (inactive)	> 100 µM (inactive)	> 100 µM (inactive)	> 100 µM (inactive)	> 100 µM (inactive)	> 100 µM (inactive)	> 100 µM (inactive)	> 100 µM (inactive)	> 100 µM (inactive)	> 100 µM (inactive)	> 100 µM (inactive)	> 100 µM (inactive)	–	> 100 µM (inactive)	> 100 µM (inactive)	> 100 µM (inactive)	> 100 µM (inactive)	> 100 µM (inactive)	–	> 100 µM (inactive)
Cc1ccc(/N=C2\SC(=NN(C)C)S\C2=N/c2ccc(C)cc2)cc1	> 100 µM (inactive)	> 100 µM (inactive)	> 100 µM (inactive)	> 100 µM (inactive)	> 100 µM (inactive)	–	> 100 µM (inactive)	> 100 µM (inactive)	–	> 100 µM (inactive)	> 100 µM (inactive)	> 100 µM (inactive)	> 100 µM (inactive)	> 100 µM (inactive)	> 100 µM (inactive)	> 100 µM (inactive)	> 100 µM (inactive)	> 100 µM (inactive)	> 100 µM (inactive)	> 100 µM (inactive)
C[C@]12[C@@H]3CC[C@H]1[C@@H](OC(=O)Nc1cc([N+](=O)[O-])cc([N+](=O)[O-])c1)C(=O)N2CC3	> 100 µM (inactive)	> 100 µM (inactive)	> 100 µM (inactive)	62.8 µM (inactive)	> 100 µM (inactive)	> 100 µM (inactive)	> 100 µM (inactive)	> 100 µM (inactive)	–	> 100 µM (inactive)	> 100 µM (inactive)	> 100 µM (inactive)	> 100 µM (inactive)	> 100 µM (inactive)	> 100 µM (inactive)	> 100 µM (inactive)	> 100 µM (inactive)	> 100 µM (inactive)	> 100 µM (inactive)	> 100 µM (inactive)
Cc1nnc(N)nc1/C=C\c1ccc(Cl)cc1Cl	40.7 µM (inactive)	36.4 µM (inactive)	72.8 µM (inactive)	27 µM (inactive)	20.3 µM (inactive)	29.6 µM (inactive)	55.5 µM (inactive)	17.3 µM (inactive)	–	42.5 µM (inactive)	27 µM (inactive)	45.4 µM (inactive)	55.5 µM (inactive)	17 µM (inactive)	30.9 µM (inactive)	46.6 µM (inactive)	> 100 µM (inactive)	34.8 µM (inactive)	54.2 µM (inactive)	18.6 µM (inactive)
N=C(N)SCc1ccc(N=C=S)cc1	13.8 µM (inactive)	13.2 µM (inactive)	15.9 µM (inactive)	5.62 µM (inactive)	16.6 µM (inactive)	–	13.7 µM (inactive)	15.6 µM (inactive)	–	14.4 µM (inactive)	15.2 µM (inactive)	12.4 µM (inactive)	14.6 µM (inactive)	10.4 µM (inactive)	14 µM (inactive)	17.6 µM (inactive)	14.5 µM (inactive)	15.2 µM (inactive)	12.5 µM (inactive)	14.3 µM (inactive)
OCC1CCCC1O (configuration not stated)	> 100 µM (inactive)	> 100 µM (inactive)	> 100 µM (inactive)	> 100 µM (inactive)	–	> 100 µM (inactive)	> 100 µM (inactive)	> 100 µM (inactive)	> 100 µM (inactive)	> 100 µM (inactive)	> 100 µM (inactive)	> 100 µM (inactive)	> 100 µM (inactive)	> 100 µM (inactive)	> 100 µM (inactive)	> 100 µM (inactive)	> 100 µM (inactive)	> 100 µM (inactive)	> 100 µM (inactive)	> 100 µM (inactive)
